In a melting point compilation (Tetko et al.; mined from patent text by program, amines drawn as free bases though some values may be those of a salt):

Row | Structure (SMILES) | melting point
1 | Cc1n[nH]c2cc(-c3nn(C(C)c4oc5ccc(F)cc5c(=O)c4-c4ccccc4)c4ncnc(N)c34)ccc12 (stereo not given) | 253 to 255 °C
2 | CCOC(=O)c1[nH]c2cc(Cl)cc(Cl)c2c1NCS(=O)(=O)c1ccccc1 | 244 to 245 °C
3 | Cc1sc(CCc2ccc(C=CC=C3OC(=O)NC3=O)cc2)nc1-c1ccccc1 | 161 to 162 °C
4 | CC(C(=O)n1c(=O)oc2ccccc21)C1(O)CCCCC1 (stereo not given) | 58 to 59 °C
5 | CC(C)c1c(C(=O)O)cnn1-c1ccc(Cl)cc1 | 211 to 212 °C
6 | CCC1(CC)CSSC[C@@H](C(=O)O)NC1=O | 127 to 128 °C
7 | N#CC(SSC(C#N)c1c[nH]c2ccccc12)c1c[nH]c2ccccc12 (stereo not given) | 169 to 170 °C
8 | CCOC(=O)c1sc(N)nc1C(C)C | 174 to 178 °C
9 | CCCCNC1NC(=O)N(c2ccc(O)cc2)C(=O)N1 | 263 to 265 °C
10 | O=C1c2cccc(NCCc3ccccc3)c2C(=O)c2cccc(NCCc3ccccc3)c21 | 205 to 207 °C
11 | COCOc1ccc(N2C(=O)[C@@H](N=[N+]=[N-])[C@H]2C=Cc2ccccc2)cc1 (relative stereo) | 111 to 112 °C
12 | O=C(O)COc1cccc(CCCOC(c2ccccc2)c2ccccc2)c1 | 110 to 112 °C
13 | COC(=O)C1=C(O)C(OC)(OC)C(O)=C(C(=O)OC)C1 | 143 to 144 °C
14 | Clc1ccc2c(c1)NCc1ccccc1S2 | 125 to 127 °C
15 | CCNC(=O)CN1C(=O)C(NC(=O)OCc2ccccc2)N=C(c2ccccc2)c2ccccc21 (stereo not given) | 149 °C
16 | COc1ccc(-c2nc(-c3c[nH]c4ccccc34)[nH]c2-c2ccc(OC)cc2)cc1 | 246 °C
17 | CC(=O)NNC(=O)c1ccc(Br)c(C)c1 | 186 to 187 °C
18 | COc1ccc(C(=O)Nc2ccc(F)cc2)cc1Nc1ccccc1 | 151 to 152 °C
19 | CCOC(=O)CCCCCBr | 34.5 to 36 °C
20 | C[C@H](c1ccccc1)n1c(=O)[nH]c2ncc(-c3ccc(-c4nc[nH]n4)cc3)nc21 | 258 to 260 °C
21 | CCCCCCCCCCCCc1cc(N)no1 | 79.5 to 81 °C
22 | N#Cc1cnc2cnc(F)cc2c1Oc1ccc(Cl)cc1F | 186 to 188 °C

Row | Structure (SMILES) | melting point
23 | CC(C)(C#N)c1cc(Cc2cncnc2)cc(C(C)(C)C#N)c1 | 132 to 134 °C
24 | CCOC(=O)CS(=O)CCSc1cc(C(C)(C)C)c(O)c(C(C)(C)C)c1 (stereo not given) | 110 °C
25 | CC(C)(C)Cc1nc2cc(CC(=O)O)ccc2o1 | 108 to 109 °C
26 | COCCNC(=O)c1cc(F)cc(-c2cccc3cc(Cc4cc(F)cc(Cl)c4)sc23)c1 | 72 to 73 °C
27 | NC(=O)c1cc2c(cc1OCC1CCCCC1)OCCC[C@H]2O | 164 to 165 °C
28 | CCOC(=O)C1CC(=O)c2nc(C)c(C)n2C1 (stereo not given) | 138 to 140 °C
29 | Cc1c(NC(=O)CC(C)(C)C)c(C)c2c(c1-c1ccsc1)OCC2c1ccc(C(C)C)cc1 (stereo not given) | 172 to 174 °C
30 | Cn1ccc(Nc2n[nH]c3c(OCCc4ccccn4)cc(-c4ncccc4Cl)cc23)n1 | 89 to 91 °C
31 | NC(=O)NNCc1ccc(OCCc2coc(-c3ccccc3)n2)cc1 | 192 to 196 °C
32 | CCCCc1ccc2c(c1)-c1[nH]c(C(=O)OC)cc(=O)c1CS2 | 144 to 146 °C
33 | CCCCOC(=O)COc1ccc(C(=O)Nc2ccc(C)cc2Sc2ccccc2-c2nnn[nH]2)cc1 | 161 to 162 °C
34 | CCCCC=CC(=O)Nc1ccccc1 | 50 °C
35 | Nc1nc2c(ncn2CC(CO)CCO)c(=O)[nH]1 (stereo not given) | 235 °C
36 | CC(Cl)(Cl)C(NC(=O)c1cccc(Cl)c1)NC(=NC#N)Nc1cccnc1 (stereo not given) | 142 to 143 °C
37 | O=C(CON1C(=O)c2ccccc2C1=O)OC(c1ccccc1)c1ccccc1 | 173 to 175 °C
38 | CCc1csc2nc(C(=O)OC)cn12 | 147 to 149 °C
39 | O=S(=O)(Nc1ccc(C(F)(F)F)cc1I)c1ccccc1 | 84 to 86 °C
40 | O=Cc1ccc(CCc2ccc(C=O)cc2)cc1 | 121 to 122 °C
41 | Cc1cc(-c2cc(C(C)(C)C)[nH]n2)c(F)cc1Cl | 138 °C
42 | O=C(Nc1ccc(-n2nc(C(F)(F)F)cc2C(F)(F)F)cc1)c1nc(Cl)ccc1Cl | 118 to 119 °C
43 | O=C(O)CCn1nc2ccc(S)nn2c1=O | 174 to 176 °C
44 | COc1cc(O)nc(C2CC2)n1 | 186 °C

Row | Structure (SMILES) | melting point
45 | CC(=S)c1ccc(-c2ccccc2)cc1 | 48 to 50 °C
46 | Cc1ccc(-c2nc(-c3ccc(C)cc3C)nc(-c3cc(C(C)(C)c4ccccc4)c(O)cc3O)n2)c(C)c1 | 168 to 170 °C
47 | COCCOc1cc2ncc(C#N)c(Nc3cc(OC)c(Cl)cc3Cl)c2cc1OCCN1CCOCC1 | 158 to 159 °C
48 | CS(=O)(=O)Nc1cc(Cl)c(C#N)cc1Sc1ccc(F)cc1F | 159 to 162 °C
49 | Cc1ccc(-n2nc(C(=O)NC(C)(C)C)c3c2C2CCC3C2)cc1 (stereo not given) | 135 to 137 °C
50 | CCc1ccc(COc2ccc(CC(NC(=O)c3cc4cc(-c5ccc(Cl)cc5)ccc4s3)C(=O)O)cc2)cc1 (stereo not given) | 205 °C
51 | N#Cc1ccc(-c2cn(-c3ccc(C#N)cc3)c(SCC(O)CO)n2)cc1 (stereo not given) | 190 to 195 °C
52 | COC(=O)c1ccc2cc(-c3ccc(C(C)(C)C)cc3)oc2c1 | 148 °C
53 | COc1cc(N(C)c2nccc(-c3ccncc3)n2)cc(OC)c1OC | 139 °C
54 | CC(C)Oc1nc(N)nc2c1ncn2C1C=CC(CO)C1 (stereo not given) | 188 to 191 °C
55 | N#Cc1ccc2oc(CCc3cc4cc(C#N)ccc4o3)cc2c1 | 243 to 244 °C
56 | COC1=C(C(=O)c2ccc(C)cc2)C(c2ccc(C(C)C)cc2)N(c2ccc(C)nn2)C1=O (stereo not given) | 248 to 249 °C
57 | N#Cc1ncc(Sc2ccccc2)nc1C#N | 109 to 112 °C
58 | COc1ccc(NC(=O)OC(C)(C)C)cc1 | 93 to 94 °C
59 | COc1cc(C(N)C(N)=O)c(F)cc1Cl (stereo not given) | 162 °C
60 | COc1cc(C=C2C(=O)CCc3cc(OC)c(OC)cc32)c([N+](=O)[O-])cc1OC | 65 to 66 °C
61 | CC(C)(C)OC(=O)CN(C(=O)OC(C)(C)C)[C@H](CC1CCCCC1)C(=O)N1CCC[C@H]1C(=O)NC1CCc2nc(N)sc2C1 (stereo not given in full) | 95 to 101 °C
62 | CNC(=NC#N)NCCSCc1noc(NC(=N)N)n1 | 185 to 188 °C
63 | COc1ccc(C(=O)Nc2c(C)c(C)c3c(c2C)C(c2ccccc2)C(C)(C)O3)cc1 (stereo not given) | 190 to 192 °C
64 | CCCCn1c(=O)n(CCC)c(=O)c2c3n(nc21)CCCCN3C | 63 to 65 °C

Continued, values first:

Row | melting point | Structure (SMILES)
65 | 212 to 220 °C | Cc1nc(-c2ccc(C#N)cc2)cn1-c1ccc(C#N)cc1
66 | 120 to 121 °C | Cc1oc(-c2ccco2)nc1COc1ccc(CO)cn1
67 | 168 to 172 °C | Nc1nc2ccccc2c2c1ncn2COCc1ccccc1
68 | 198 °C | CCn1cc(C(=O)O)c(=O)c2cc(F)c(N3CCNC(c4ccco4)C3)cc21 (stereo not given)
69 | 243 to 251 °C | COc1ccc(N2C(=O)N(c3cccc(C(N)=O)c3)c3nc(Nc4cccc(CCN5CCN(C)CC5)c4)ncc3C2C)cc1 (stereo not given)
70 | 89 °C | CCCC1CCC(c2cc3c4c(c(F)c(F)c3o2)OCCC4)CC1 (stereo not given)
71 | 53 to 54 °C | Cc1c(C)c2c(c(C)c1N)CC(C)(CN1CCC(OCCCc3ccccc3)CC1)O2 (stereo not given)
72 | 153 to 155 °C | CN1CCN(C2=Nc3cc(Br)ccc3N3CCc4cccc2c43)CC1
73 | 113 to 115 °C | COc1cc2c(cc1NN)oc1ccccc12
74 | 273 to 274 °C | Cc1c(-c2cccc(O)c2O)c(=O)oc2cc(O)ccc12
75 | 242 °C | Cc1cc2n(C)c3ncccc3c(=O)n2n1
76 | 275 to 277 °C | O=c1[nH]c2ncc(-c3ccc(CO)cc3)nc2n1CC1CCCCC1
77 | 149 to 150 °C | CCN(CC)CCNc1nc2cccnc2n(-c2ccc(Cl)cc2)c1=O
78 | 134 to 136 °C | Cc1ccccc1C1SCCCN1C(=S)Nc1cccc(Cl)c1 (stereo not given)
79 | 126 to 127 °C | O=C1CCCC(n2nc(-c3c(-c4ccccc4)nn4ccccc34)ccc2=O)C1 (stereo not given)
80 | 211 to 217 °C | COc1ccc(/C=C/C(=O)Nc2ccccc2C(=O)O)cc1OC1CCCC1
81 | 177 to 179 °C | O=C(Nc1cccc2cc(Cn3ccnc3)cnc12)c1c(Cl)cccc1Cl
82 | 102 to 103 °C | Cc1ccc(C(=O)c2cccc3c2CCCC3C(=O)O)cc1 (stereo not given)

Row | melting point | Structure (SMILES)
83 | 191 to 193 °C | Cc1cc(=O)oc2nn(Cc3cccnc3)c(C)c12
84 | 74 to 78 °C | Cc1cccc(-c2[nH]c(C(C)C)nc2-c2cccc(-c3ccoc3)c2)n1
85 | 146 to 147 °C | Oc1ccc2c(c1)OCC(c1ccc(F)cc1)C2c1ccc(OCCN2CCCCC2)cc1 (stereo not given)
86 | 176 °C | OC1(CNc2nc3ccccc3s2)CCN(CC2COc3ccccc3O2)CC1 (stereo not given)
87 | 180 to 182 °C | O=[N+]([O-])c1cc(N2CCNCC2)ccc1S(=O)(=O)c1ccccc1
88 | 233 to 235 °C | CCC(=O)NC[C@H]1CN(c2ccc3c(c2)CCCc2cn[nH]c2-3)C(=O)O1
89 | 205 °C | CN1Cc2cc(C(O)CN3CCC(COc4ccccc4)CC3)ccc2NC1=O (stereo not given)
90 | 117 to 119 °C | O=C(NC1CCN(CCCc2ccc(F)cc2)CC1)C1=Cc2cnc3cccc(n23)S1
91 | 109 to 112 °C | Brc1cccc(OCc2ccc3ccccc3c2)c1
92 | 156 °C | O=C(Nc1ccc2ccc(-c3ccccc3Cl)nc2n1)c1ccccc1
93 | 232 to 233 °C | CN(C)C(=O)c1nc(-c2ccccc2)nc2[nH]c3cc(Cl)ccc3c12
94 | 184 to 185 °C | CCOC(=O)c1c(Cn2cncn2)nc2sc3c(c2c1-c1cccc(OC)c1OC)CCCN3C(=O)OCc1ccccc1
95 | 109 to 110 °C | O=C1CCCN1c1cn(-c2cccnc2)nc1Cl
96 | 126 to 129 °C | COC(=O)CCCc1cc2cc(Cl)ccc2n1S(=O)(=O)c1ccc2c(c1)CCC(C)(C)O2
97 | 168 °C | Cc1c(NC(=O)c2ccc(OCC3CC3)cc2)ccc2cc(CN3CCCC3)cnc12
98 | 70 to 71.5 °C | CC1C(=O)Oc2c(Oc3ccccc3F)cccc21 (stereo not given)
99 | 245 to 249 °C | CN(Cc1ccc(NC(=O)C2=Cc3cc(-c4ccc5c(c4)CCCO5)ccc3S(=O)(=O)CC2)cc1)C1CCOCC1
100 | 115 °C | OC(COc1ncnc2nc[nH]c12)CN1CCN(C(c2ccccc2)c2ccccc2)CC1 (stereo not given)
